Assay results taken from ChEMBL document CHEMBL1131484, “Human growth hormone-releasing hormone hGHRH(1-29)-NH2: systematic structure-activity relationship studies” (J Med Chem, 1998).

Target: T1, Growth hormone-releasing hormone receptor (Rattus norvegicus) (UniProt Q02644)
T1 sequence (whole entry): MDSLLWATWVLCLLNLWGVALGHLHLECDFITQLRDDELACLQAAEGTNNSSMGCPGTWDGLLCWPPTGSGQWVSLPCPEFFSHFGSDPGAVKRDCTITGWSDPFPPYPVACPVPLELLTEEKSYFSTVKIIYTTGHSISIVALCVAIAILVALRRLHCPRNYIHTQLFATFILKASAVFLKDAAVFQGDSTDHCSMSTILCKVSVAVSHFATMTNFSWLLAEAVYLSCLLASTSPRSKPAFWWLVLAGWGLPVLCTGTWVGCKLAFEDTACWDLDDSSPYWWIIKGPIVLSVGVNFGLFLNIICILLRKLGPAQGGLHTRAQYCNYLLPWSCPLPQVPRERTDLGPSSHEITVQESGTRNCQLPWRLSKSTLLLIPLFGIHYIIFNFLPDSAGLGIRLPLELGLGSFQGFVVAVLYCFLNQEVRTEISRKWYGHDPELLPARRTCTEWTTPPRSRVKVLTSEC
Test: Potency for growth hormone releasing hormone receptor (GHRFR) relative to human GHRH(1-40)OH- in the rat pituitary cell culture assay
Type: functional, cell-based
Conditions: Pituitary gland cell

Which Relative potency does the source give for `CCCC[C@H]1NC(=O)[C@H]([C@@H](C)CC)NC(=O)[C@@H](NC(=O)[C@H](Cc2c[nH]cn2)NC(=O)[C@H](CC(C)C)NC(=O)[C@H](CC(C)C)NC(=O)[C@H](CCCCN)NC(=O)[C@H](CCCN=C(N)N)NC(=O)[C@H](Cc2ccccc2)NC(=O)[C@@H](NC(=O)[C@H](CC(C)C)NC(=O)[C@H](CCC(N)=O)NC(=O)[C@H](C)NC(=O)[C@H](CC(C)C)NC(=O)[C@@H](NC(=O)[C@H](CCCN=C(N)N)NC(=O)[C@H](CCCN=C(N)N)NC(=O)[C@H](Cc2ccc(O)cc2)NC(=O)[C@H](CO)NC(=O)[C@H](CO)NC(=O)[C@@H](NC(=O)[C@H](Cc2ccccc2)NC(=O)[C@@H](NC(=O)[C@H](C)NC(=O)[C@H](CC(=O)O)NC(=O)[C@H](C)NC(=O)[C@@](C)(N)Cc2c[nH]cn2)[C@@H](C)CC)[C@@H](C)O)[C@@H](C)CC)[C@@H](C)CC)CSSC[C@@H](C(N)=O)NC(=O)[C@H](CC(N)=O)NC1=O` here?
Its Relative potency is 1.1.

With `CC[C@@H](C)[C@@H](NC(=O)[C@@H](C)NC(=O)[C@@H](CC(=O)O)NC(=O)[C@@H](C)NC(=O)[C@H](N)Cc1ccc(O)cc1)C(=O)N[C@H](Cc1ccccc1)C(=O)N[C@@H]1CCC(=O)NCCCC[C@@H](C(=O)N[C@@H](CCCN=C(N)N)C(=O)N[C@@H](CCCCN)C(=O)N[C@H](C(=O)N[C@@H](CC(C)C)C(=O)NCC(=O)N[C@@H](CCC(N)=O)C(=O)N[C@@H](CC(C)C)C(=O)N[C@@H](CO)C(=O)N[C@@H](C)C(=O)N[C@@H](CCCN=C(N)N)C(=O)N[C@@H](CCCCN)C(=O)N[C@@H](CC(C)C)C(=O)N[C@@H](CC(C)C)C(=O)N[C@@H](CCC(N)=O)C(=O)N[C@@H](CC(=O)O)C(=O)N[C@H](C(=O)N[C@@H](CCSC)C(=O)N[C@@H](CO)C(=O)N[C@@H](CCCN=C(N)N)C(N)=O)[C@@H](C)CC)C(C)C)NC(=O)[C@H](CO)NC(=O)[C@@H](CC(N)=O)NC1=O` as the compound, how does the Relative potency read?
The Relative potency was 0.008.

How did the Relative potency turn out when `CC[C@H](C)[C@H](NC(=O)[C@H](C)NC(=O)[C@H](CC(=O)O)NC(=O)[C@H](C)NC(=O)[C@@H](N)Cc1ccc(O)cc1)C(=O)N[C@@H](Cc1ccccc1)C(=O)N[C@H](C(=O)N[C@@H](CC(N)=O)C(=O)N[C@@H](CO)C(=O)N[C@@H](Cc1ccc(O)cc1)C(=O)N[C@@H](CCCN=C(N)N)C(=O)N[C@H]1CCC(=O)NCCCC[C@H](C(=O)N[C@H](CCC(N)=O)C(=O)N[C@H](CC(C)C)C(=O)N[C@H](CO)C(=O)N[C@H](C)C(=O)N[C@@H](CCCN=C(N)N)C(=O)N[C@@H](CCCCN)C(=O)N[C@@H](CC(C)C)C(=O)N[C@@H](CC(C)C)C(=O)N[C@@H](CCC(N)=O)C(=O)N[C@@H](CC(=O)O)C(=O)N[C@H](C(=O)N[C@@H](CCSC)C(=O)N[C@@H](CO)C(=O)N[C@@H](CCCN=C(N)N)C(N)=O)[C@@H](C)CC)NC(=O)[C@@H](CC(C)C)NC(=O)[C@H](C(C)C)NC1=O)[C@@H](C)O` was run?
The Relative potency was 1.2.

With `CC[C@H](C)[C@H](NC(=O)[C@H](C)NC(=O)[C@H](CC(=O)O)NC(=O)[C@H](C)NC(=O)[C@@H](N)Cc1ccc(O)cc1)C(=O)N[C@@H](Cc1ccccc1)C(=O)N[C@H](C(=O)N[C@H]1CCC(=O)NCCCC[C@H](C(=O)N[C@@H](CCCCN)C(=O)N[C@H](C(=O)N[C@@H](CC(C)C)C(=O)NCC(=O)N[C@@H](CCC(N)=O)C(=O)N[C@@H](CC(C)C)C(=O)N[C@@H](CO)C(=O)N[C@@H](C)C(=O)N[C@@H](CCCN=C(N)N)C(=O)N[C@@H](CCCCN)C(=O)N[C@@H](CC(C)C)C(=O)N[C@@H](CC(C)C)C(=O)N[C@@H](CCC(N)=O)C(=O)N[C@@H](CC(=O)O)C(=O)N[C@H](C(=O)N[C@@H](CCSC)C(=O)N[C@@H](CO)C(=O)N[C@@H](CCCN=C(N)N)C(N)=O)[C@@H](C)CC)C(C)C)NC(=O)[C@H](Cc2ccc(O)cc2)NC(=O)[C@H](CO)NC1=O)[C@@H](C)O` as the compound, how does the Relative potency read?
The Relative potency was 0.014.
